Assay results published in the NIST ThermoML archive (doi:10.1016/j.tca.2016.03.033).
± gives the expanded uncertainty stated by the source.

Columns and labels:
[1] = Ring tensiometer
[2] = xn = mol fraction of the nth substance listed; details: Ring tensiometer

[F-].[Na+] [sodium fluoride]
Details	surface tension liquid-gas [mN/m]
[1], 1325 K	187.14 ± 3.1

[F][La]([F])[F] [lanthanum trifluoride] + [F-].[Li+]
surface tension liquid-gas [mN/m], [2]
Details	1223 K	1248 K	1273 K	1298 K	1323 K	1348 K	1373 K	1398 K	1423 K
x1 = 0.2	257.3 ± 4.2	254.9 ± 4.1	251.8 ± 4.1	249.3 ± 4	247 ± 4	244.4 ± 4	242.1 ± 3.9	239.2 ± 3.9	236.9 ± 3.9
x1 = 0.25	264.7 ± 4.3	262.1 ± 4.2	259 ± 4.2	256.3 ± 4.2	253.6 ± 4.1	251.2 ± 4.1	248.8 ± 4	246.7 ± 4	243.9 ± 4
x1 = 0.3	272.2 ± 4.4	269.5 ± 4.4	267.2 ± 4.3	264.9 ± 4.3	262.1 ± 4.3	258.9 ± 4.2	256.5 ± 4.2	253.8 ± 4.1	251.3 ± 4.1
x1 = 0.35	–	–	–	274.2 ± 4.4	271.4 ± 4.4	268.3 ± 4.4	265 ± 4.3	262.2 ± 4.3	259.8 ± 4.2
x1 = 0.4	–	–	–	–	281.7 ± 4.6	279.1 ± 4.5	276.5 ± 4.5	274 ± 4.5	270.9 ± 4.4

[F][Nd]([F])[F] [neodymium fluoride] + [F-].[Li+]
surface tension liquid-gas [mN/m], [2]
Details	1223 K	1248 K	1273 K	1298 K	1323 K	1348 K	1373 K	1398 K	1423 K
x1 = 0.2	249.1 ± 4.1	247.2 ± 4	244.3 ± 4	241.9 ± 3.9	239.6 ± 3.9	237.3 ± 3.9	235.2 ± 3.8	232.9 ± 3.8	230.8 ± 3.8
x1 = 0.25	258.3 ± 4.2	255.7 ± 4.2	253.5 ± 4.1	250.9 ± 4.1	249.3 ± 4.1	246.3 ± 4	243.6 ± 4	240.4 ± 3.9	239.1 ± 3.9
x1 = 0.3	267.8 ± 4.4	264.9 ± 4.3	262.7 ± 4.3	259.5 ± 4.2	257 ± 4.2	254.5 ± 4.1	251.6 ± 4.1	249.3 ± 4.1	246.9 ± 4
x1 = 0.35	279.2 ± 4.5	276.8 ± 4.5	273.3 ± 4.4	270.4 ± 4.4	268.1 ± 4.4	266 ± 4.3	262.7 ± 4.3	260.4 ± 4.2	257.3 ± 4.2
x1 = 0.4	–	–	284.1 ± 4.6	280.7 ± 4.6	279.6 ± 4.5	276.8 ± 4.5	274.1 ± 4.5	272.1 ± 4.4	268.2 ± 4.4

[Cl-].[K+] [potassium chloride]
Details	surface tension liquid-gas [mN/m]
[1], 1230 K	86.14 ± 1.5
